These are literature values, as cited in patent US20110144117A1, “Pharmaceutical Dosage Form Containing Tetrahydrobiopterin” (OrPha Swiss GmbH, priority 2008, published 2011).

Molecules are shown by their SMILES.

Data set [1] concerns patients exhibiting mutations in the PAH gene. The settings on record: dietary supplementation, patients with mutations in the PAH gene (Kure et al.).
For data set [2] the following is noted: in pure water.
In data set [3] the test system is patient with a dihydrobiopterin deficiency. The settings on record: single dose, patient with dihydrobiopterin deficiency (Niederwieser et al.).

On to `CC(O)C(O)C1CNc2nc(N)[nH]c(=O)c2N1` (stereo not drawn) [tetrahydrobiopterin, 5,6,7,8-tetrahydro-biopterin], for which, in data set [1], the “phenylalanine blood plasma concentration” value was “reduces”.

As for `C[C@H](O)C(=O)C1=Nc2c(nc(N)[nH]c2=O)NC1` [L-sepiapterin], in data set [2], the solubility is recorded as 0.17 g/100 g H2O. In addition, the symptoms of hyperphenylalaninemia result in data set [3] was “transiently disappeared”.
